Results reported in ChEMBL document CHEMBL5331050, “Spiro[benzoxazine-piperidin]-one derivatives as chitin synthase inhibitors and antifungal agents: Design, synthesis and biological evaluation” (Eur J Med Chem, 2022).
≈ marks a conversion by molar mass, not a printed value.

Experiments:
[1] = test system: Aspergillus flavus; assay: Antifungal activity against Aspergillus flavus ATCC 16870 assessed as disruption of fungal wall by measuring fungal growth incubated for 24 hrs in the presence of sorbitol; type: functional
[2] = test system: Aspergillus fumigatus; assay: Antifungal activity against Aspergillus fumigatus GIMCC 3.19 assessed as disruption of fungal wall by measuring fungal growth incubated for 24 hrs in the presence of sorbitol; type: functional
[3] = test system: Cryptococcus neoformans; assay: Antifungal activity against Cryptococcus neoformans ATCC 208821 assessed as disruption of fungal wall by measuring fungal growth incubated for 24 hrs in the presence of sorbitol; type: functional
[4] = test system: Candida albicans; assay: Antifungal activity against Candida albicans ATCC 76615 assessed as disruption of fungal wall by measuring fungal growth incubated for 24 hrs in the presence of sorbitol; type: functional
[5] = test system: Aspergillus fumigatus; assay: Antifungal activity against Aspergillus fumigatus GIMCC 3.19 assessed as fungal growth inhibition incubated for 24 hrs by CLSI protocol based broth microdilution method; type: functional
[6] = test system: Candida albicans; assay: Antifungal activity against Candida albicans ATCC 76615 assessed as fungal growth inhibition incubated for 24 hrs by CLSI protocol based broth microdilution method; type: functional
[7] = test system: Cryptococcus neoformans; assay: Antifungal activity against Cryptococcus neoformans ATCC 208821 assessed as fungal growth inhibition incubated for 24 hrs by CLSI protocol based broth microdilution method; type: functional
[8] = Inhibition of Candida tropicalis ATCC 750 chitin synthase using UDP-GlcNAc as substrate incubated for 1 hrs by absorbance based assay
[9] = test system: Aspergillus flavus; assay: Antifungal activity against Aspergillus flavus ATCC 16870 assessed as fungal growth inhibition incubated for 24 hrs by CLSI protocol based broth microdilution method; type: functional
[10] = test system: Candida tropicalis; assay: Inhibition of Candida tropicalis ATCC 750 chitin synthase using UDP-GlcNAc as substrate at 300 ug/ml incubated for 1 hrs by absorbance based assay relative to control; conditions: dose 300.0 µg/ml
[11] = test system: Aspergillus flavus; assay: Synergistic antifungal activity against Aspergillus flavus ATCC 16870 assessed as fungal growth inhibition incubated for 24 hrs in the presence of fluconazole by broth dilution based checkerboard method; type: functional
[12] = test system: Candida albicans; assay: Synergistic antifungal activity against Candida albicans ATCC 76615 assessed as fungal growth inhibition incubated for 24 hrs in the presence of fluconazole by broth dilution based checkerboard method; type: functional
[13] = test system: Cryptococcus neoformans; assay: Synergistic antifungal activity against Cryptococcus neoformans ATCC 208821 assessed as fractional inhibitory concentration index incubated for 24 hrs in the presence of fluconazole by broth dilution based checkerboard method; type: functional
[14] = test system: Candida albicans; assay: Synergistic antifungal activity against Candida albicans ATCC 76615 assessed as fractional inhibitory concentration index incubated for 24 hrs in the presence of fluconazole by broth dilution based checkerboard method; type: functional
[15] = test system: Aspergillus fumigatus; assay: Synergistic antifungal activity against Aspergillus fumigatus GIMCC 3.19 assessed as fungal growth inhibition incubated for 24 hrs in the presence of fluconazole by broth dilution based checkerboard method; type: functional
[16] = test system: Cryptococcus neoformans; assay: Synergistic antifungal activity against Cryptococcus neoformans ATCC 208821 assessed as fungal growth inhibition incubated for 24 hrs in the presence of fluconazole by broth dilution based checkerboard method; type: functional
[17] = test system: Aspergillus flavus; assay: Synergistic antifungal activity against Aspergillus flavus ATCC 16870 assessed as fractional inhibitory concentration index incubated for 24 hrs in the presence of fluconazole by broth dilution based checkerboard method; type: functional
[18] = test system: Aspergillus fumigatus; assay: Synergistic antifungal activity against Aspergillus fumigatus GIMCC 3.19 assessed as fractional inhibitory concentration index incubated for 24 hrs in the presence of fluconazole by broth dilution based checkerboard method; type: functional
[19] = Inhibition of chitin synthase (unknown origin); design: species or system Fungi

Row | MIC [11] [µg/mL] | MIC [12] [µg/mL] | MIC [15] [µg/mL] | MIC [16] [µg/mL] | IC50 [19] [µM] | SMILES | MIC [1] [µg/mL] | MIC [2] [µg/mL] | MIC [3] [µg/mL] | MIC [4] [µg/mL] | MIC [5] [µg/mL] | MIC [6] [µg/mL] | MIC [7] [µg/mL] | IC50 [8] [µM] | MIC [9] [µg/mL] | inhibition [10] [%] | fractional inhibitory concentration index (FICI) [13] | fractional inhibitory concentration index (FICI) [14] | fractional inhibitory concentration index (FICI) [17] | fractional inhibitory concentration index (FICI) [18]
1 |  |  |  |  |  | NC(=O)OC[C@H](O)[C@@H](O)[C@H](N)C(=O)N[C@H](C(=O)O)[C@H]1O[C@@H](n2cc(CO)c(=O)[nH]c2=O)[C@H](O)[C@@H]1O [POLYOXIN B] | > 512 | 512 | > 512 | 512 | 32 (≈ 63.1 µM) | 64 (≈ 126 µM) | 64 (≈ 126 µM) | 80 | 64 (≈ 126 µM) | 85 |  |  |  | 
2 | 16 | 16 | 32 | 32 |  | COc1ccc2c(c1)C1(CCN(C(=O)/C=C/C(=O)Nc3ccc([N+](=O)[O-])cc3OC)CC1)OC(=O)N2 | > 512 | 512 | > 512 |  | 64 (≈ 129 µM) | 128 (≈ 258 µM) | 64 (≈ 129 µM) | 100 | 42.7 (≈ 85.9 µM) | 86 | 1 | 1.13 | 1.37 | 1.5
3 |  |  |  |  | 100 | O=C(/C=C/C(=O)N1CCCC12Cc1ccccc1NC2=O)Nc1cccc([N+](=O)[O-])c1 (stereo not drawn) |  |  |  |  |  |  |  |  |  |  |  |  |  | 
